Measurements taken from PubChem BioAssay (NCI).
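Assay format: 96-well plates, 48-hour exposure. At the TGI there is no net growth.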

Columns and labels:
Test in all cases: NCI anticancer screen, dose series, 48 h
[1] = system: HL-60(TB) leukemia
[2] = system: OVCAR-8 ovarian
[3] = system: MOLT-4 leukemia
[4] = system: SF-268 CNS
[5] = system: HCT-116 colon
[6] = system: DU-145 prostate
[7] = system: NCI-H460 lung
[8] = system: SR leukemia
[9] = system: SNB-75 CNS
[10] = system: NCI/ADR-RES ovarian
[11] = system: M14 melanoma
[12] = system: K-562 leukemia
[13] = system: HCT-15 colon
[14] = system: COLO 205 colon
[15] = system: PC-3 prostate
[16] = system: SK-OV-3 ovarian
[17] = system: NCI-H226 lung
[18] = system: A498 renal
[19] = system: SF-539 CNS
[20] = system: UO-31 renal
[21] = system: MCF7 breast
[22] = system: KM12 colon
[23] = system: UACC-62 melanoma
[24] = system: BT-549 breast
[25] = system: HT29 colon
[26] = system: OVCAR-5 ovarian
[27] = system: SW-620 colon
[28] = system: ACHN renal
[29] = system: SK-MEL-28 melanoma
[30] = system: IGROV1 ovarian
[31] = system: 786-0 renal
[32] = system: SK-MEL-5 melanoma
[33] = system: MDA-MB-231 breast
[34] = system: NCI-H23 lung
[35] = system: SK-MEL-2 melanoma
[36] = system: HCC-2998 colon
[37] = system: CAKI-1 renal
[38] = system: A549 NSCLC
[39] = system: SN12C renal
[40] = system: TK-10 renal
[41] = system: CCRF-CEM leukemia
[42] = system: MALME-3M melanoma
[43] = system: HS 578T breast
[44] = system: SF-295 CNS
[45] = system: UACC-257 melanoma
[46] = system: T-47D breast
[47] = system: NCI-H522 lung
[48] = system: MDA-N
[49] = system: U251 CNS
[50] = system: MDA-MB-435
[51] = system: SNB-19 CNS
[52] = system: OVCAR-3 ovarian
[53] = system: HOP-62 NSCLC
[54] = system: LOX IMVI melanoma
[55] = system: RPMI-8226 leukemia
[56] = system: HOP-92 NSCLC
[57] = system: EKVX NSCLC

O=C(NCCNCCO)N/N=C/c1ccc([N+](=O)[O-])cc1
TGI [1]: > 100 µM
TGI [2]: > 100 µM
TGI [3]: > 100 µM
TGI [4]: > 100 µM
TGI [5]: > 100 µM
TGI [6]: > 100 µM
TGI [7]: > 100 µM
TGI [8]: > 100 µM
TGI [9]: 98.5 µM
TGI [10]: > 100 µM
TGI [11]: > 100 µM
TGI [12]: > 100 µM
TGI [13]: > 100 µM
TGI [14]: > 100 µM
TGI [15]: > 100 µM
TGI [16]: > 100 µM
TGI [17]: > 100 µM
TGI [18]: > 100 µM
TGI [19]: > 100 µM
TGI [20]: > 100 µM
TGI [21]: > 100 µM
TGI [22]: > 100 µM
TGI [23]: > 100 µM
TGI [24]: > 100 µM
TGI [25]: > 100 µM
TGI [26]: > 100 µM
TGI [27]: > 100 µM
TGI [28]: > 100 µM
TGI [29]: > 100 µM
TGI [30]: > 100 µM
TGI [31]: > 100 µM
TGI [32]: > 100 µM
TGI [33]: > 100 µM
TGI [34]: > 100 µM
TGI [35]: > 100 µM
TGI [36]: > 100 µM
TGI [37]: > 100 µM
TGI [38]: > 100 µM
TGI [39]: > 100 µM
TGI [40]: > 100 µM
TGI [41]: > 100 µM
TGI [42]: > 100 µM
TGI [43]: > 100 µM
TGI [44]: > 100 µM
TGI [45]: > 100 µM
TGI [46]: > 100 µM
TGI [47]: > 100 µM
TGI [48]: > 100 µM
TGI [49]: > 100 µM
TGI [50]: > 100 µM
TGI [51]: > 100 µM
TGI [52]: > 100 µM
TGI [53]: > 100 µM

Cc1cc(C)c(C)c(-n2[nH]c(=O)n(C)c2=O)c1C
TGI [1]: > 100 µM
TGI [2]: > 100 µM
TGI [3]: > 100 µM
TGI [4]: > 100 µM
TGI [5]: > 100 µM
TGI [6]: > 100 µM
TGI [7]: > 100 µM
TGI [8]: > 100 µM
TGI [10]: > 100 µM
TGI [11]: > 100 µM
TGI [12]: > 100 µM
TGI [13]: > 100 µM
TGI [14]: > 100 µM
TGI [15]: > 100 µM
TGI [16]: > 100 µM
TGI [17]: > 100 µM
TGI [18]: > 100 µM
TGI [19]: > 100 µM
TGI [20]: > 100 µM
TGI [21]: > 100 µM
TGI [22]: > 100 µM
TGI [23]: > 100 µM
TGI [24]: > 100 µM
TGI [25]: > 100 µM
TGI [26]: > 100 µM
TGI [27]: > 100 µM
TGI [28]: > 100 µM
TGI [54]: > 100 µM
TGI [29]: > 100 µM
TGI [30]: > 100 µM
TGI [31]: > 100 µM
TGI [32]: > 100 µM
TGI [33]: > 100 µM
TGI [55]: > 100 µM
TGI [34]: > 100 µM
TGI [35]: > 100 µM
TGI [37]: > 100 µM
TGI [38]: > 100 µM
TGI [39]: > 100 µM
TGI [40]: > 100 µM
TGI [41]: > 100 µM
TGI [43]: > 100 µM
TGI [44]: > 100 µM
TGI [45]: > 100 µM
TGI [46]: > 100 µM
TGI [56]: > 100 µM
TGI [57]: > 100 µM
TGI [48]: > 100 µM
TGI [49]: > 100 µM
TGI [50]: > 100 µM
TGI [51]: > 100 µM
TGI [52]: > 100 µM
TGI [53]: > 100 µM
